Series [1] in a line: DPPH free radical scavenging activity. The conditions noted are these: 10–160 μM, 30 min, room temperature. Here is the method: Stable 1,1-diphenyl-2-picrylhydrazyl (DPPH) radical in ethanol (100 μM; Sigma-Aldrich) was used to measure the antioxidant activity of these LM compounds. After addition of quercetin (positive control) or LM compound (10–160 μM), the mixture was vortexed for 15 s and incubated at room temperature for 30 min. Subsequently, the mixture was measured spectrophotometrically at 517 nm (Multiskan GO microplate spectrophotometer; Thermo Fisher Scientific). The free radical scavenging activity was calculated as the percentage of DPPH discoloration using the formula 1 – (absorbance of sample/absorbance of control) × 100%, with half maximal effective concentration (EC50) calculated using the interpolation method.

Series [2] deals with p-CREB (Ser133). As to the kind of experiment: Western blot p-CREB (Ser133) in MPP^+-treated BE(2)-M17 cells. Format: cell-based, human. The conditions noted are these: BE(2)-M17, compound 10 μM + 0.62 mM MPP^+; MPP^+ alone 83%; untreated = 100%. Here is the method:
(§1) HMC3 (2 × 10^5/6-well) or BE(2)-M17 (4 × 10^5/6-well) cells were lysed in buffer (composition: 50 mM Tris-HCl pH8.0, 2 mM EDTA pH8.0, 150 mM NaCl, 0.5% sodium deoxycholate, 0.1% SDS, 50 mM NaF, 1% NP40) containing the protease and/or phosphatase inhibitor cocktail (Sigma-Aldrich). After sonication, the lysates were centrifuged (12,000 × g for 10 min at 4°C) and protein concentrations determined (Bradford protein assay; Bio-Rad, Hercules, CA, USA). Aliquots of protein (20 μg) were separated by electrophoresis using 10%−12% SDS–polyacrylamide gel followed by transfer to a polyvinylidene fluoride (PVDF) membrane. […] The immune complexes were detected using horseradish peroxidase (HRP)-conjugated goat anti-mouse or goat anti-rabbit IgG antibody (1:5,000; GeneTex) and chemiluminescent HRP substrate (Millipore, Burlington, MA, USA). Immunoreactive bands were captured (ImageQuant™ LAS 4000, GE Healthcare, Chicago, IL, USA) and quantified (Multi Gauge V3.0 software, Fujifilm, Tokyo, Japan).

Series [3] concerns BCL2. Description: Western blot BCL2 in MPP^+-treated BE(2)-M17 cells. The conditions noted are these: BE(2)-M17, compound 10 μM + 0.62 mM MPP^+; MPP^+ alone 70%; untreated = 100%. In kind it is cell-based, human. Here is the method: as §1
On the set-up of series [4]: method as in Chiu et al., 2021. The note with it: in vivo pharmacokinetic assessment ref Chiu et al., 2021; cited from earlier work.
Series [5] deals with CASP1. As to the kind of experiment: Western blot CASP1 in MPP^+-stimulated HMC3 cells. Format: cell-based, human. The note with it: HMC3, 4 mM MPP^+ alone; untreated = 100%. On the procedure: as §1
Series [6] deals with IL-6. As to the kind of experiment: Western blot IL-6 in MPP^+-stimulated HMC3 cells. The conditions noted are these: HMC3, 4 mM MPP^+ alone; untreated = 100%. Format: cell-based, human. Here is the method:
as §1
Background: Immunoblotting shows a protein as a band on a membrane.

Series [7] relates to TNF-α. Description: Western blot TNF-α in MPP^+-stimulated HMC3 cells. Format: cell-based, human. The conditions noted are these: HMC3, 4 mM MPP^+ alone; untreated = 100%. Here is the method:
as §1

Series [8] concerns caspase-1. As to the kind of experiment: caspase-1 activity assay in MPP^+-treated BE(2)-M17 cells. Format: cell-based, human. The note with it: BE(2)-M17, 0.62 mM MPP^+ alone; untreated = 100%. On the procedure: BE(2)-M17 cells were plated onto six-well (4 × 10^5/well) and treated with retinoic acid, LM compounds (10 μM), and MPP^+ as described. Cells were collected on day 7 and lysed by six freeze/thaw cycles. Types of substrates applied were: Ac-Tyr-Val-Ala-Asp-7-amino-4-trifluoromethyl coumarin (YVAD-AFC) for caspase-1, Ac-Val-Glu-Ile-Asp-7-amino-4-trifluoromethyl coumarin (VEID-AFC) for caspase-6 (BioVision, Milpitas, CA, USA), and Ac-Asp-Glu-Val-Asp-7-amido-4-methylcoumarin (DEVD-AMC) for caspase-3 (Sigma-Aldrich). The reaction mixtures were incubated for 1.5 h at 37°C per the manufacturer's instructions. The fluorescence intensity at 400 nm excitation and 505 nm emission (caspase-1 and caspase-6) or 360 nm excitation and 460 nm emission (caspase-3) wavelengths were recorded (BioTek FLx800).

Details of series [9]: method as in Huang C. C. et al., 2021. The note with it: parallel artificial membrane permeability assay ref Huang C. C. et al., 2021; cited from earlier work.
Series [10] relates to MPP^+-activated HMC3 cells. Description: cell viability (MTT) in MPP^+-activated HMC3 cells. The conditions noted are these: Homo sapiens; HMC3, compound 10 μM 8 h pre-treatment, then 4 mM MPP^+ 20 h; MPP^+ alone 63%; MPP^+-untreated = 100%. Format: cell-based. On the procedure:
To examine anti-inflammatory potential of LM compounds, HMC3 cells were plated into six-well (2 × 10^5/well) dishes, grown for 20 h, and pre-treated with compounds (10 μM) for 8 h before 4 mM MPP^+ addition for 20 h. The cell viability was evaluated by MTT assay as described, and the release of nitric oxide (NO) in cell culture medium was examined by Griess reagent kit (Thermo Fisher Scientific) based on a classic protocol.

Read-outs that look alike come from different tables or passages of the source.

Usually EC50 stands for the concentration at which the effect is half-maximal. Low readings indicate greater potency, high ones weaker potency. In turn, `CN(C)c1ccc(/C=C/C(=O)c2c(O)c3ccccc3oc2=O)cc1` [LM-021, (E)-3-(3-(4-(dimethylamino)phenyl)acryloyl)-4-hydroxy-2H-chromen-2-one] showed an EC50 in [1] of 65 µM. Moreover, the “p-CREB (Ser133) level” value in series [2] was 102–105%. In series [3], the BCL2 level is listed as 99–110%. In series [4], the “bioavailability and BBB penetration potential” value is “good bioavailability and BBB penetration potential”.
In turn, `C[n+]1ccc(-c2ccccc2)cc1` [MPP^+, 1-methyl-4-phenyl pyridinium, reference compound] displayed a CASP1 expression in series [5] of 218%. Further, the IL-6 expression in series [6] was 182%. The TNF-α expression in [7] turned out to be 223%. For the same molecule, the caspase-1 activity in series [8] is on record as 112%.
As for `O=C(/C=C/c1ccccc1O)c1c(O)c2ccccc2oc1=O` [LM-036], the “p-CREB (Ser133) level” value in series [2] is reported as 102–105%. Further, the BCL2 level in series [3] is 99–110%. The “bioavailability and BBB penetration potential” value in series [9] was “good bioavailability and BBB penetration potential”.
Usually viability stands for a per cent measure of how many cells are alive, often set against a control. Regarding `Cc1ccc(/C=C/C(=O)c2c(O)c3ccccc3oc2=O)cc1` [LM-016], the concentration for a half-maximal effect (EC50) in [1] was found to be 127 µM. Besides, in series [10], the viability at 10 µM lay in the range of 81 to 86%.

These data come from publication PMC11473416, “Coumarin-chalcone derivatives as dual NLRP1 and NLRP3 inflammasome inhibitors targeting oxidative stress and inflammation in neurotoxin-induced HMC3 and BE(2)-M17 cell models of Parkinson's disease” (Frontiers in Aging Neuroscience, 2024).
